In ChEMBL document CHEMBL4118098, “Discovery of DS28120313 as a potent orally active hepcidin production inhibitor: Design and optimization of novel 4,6-disubstituted indazole derivatives” (Bioorg Med Chem Lett, 2017):
One block for each compound: values may come before it.

How the values were obtained:
[1] = biological target: T1, Tyrosine-protein kinase TXK (Homo sapiens) (UniProt P42681); assay: Inhibition of TXK (unknown origin) at 0.45 uM relative to control
T1 sequence (whole entry): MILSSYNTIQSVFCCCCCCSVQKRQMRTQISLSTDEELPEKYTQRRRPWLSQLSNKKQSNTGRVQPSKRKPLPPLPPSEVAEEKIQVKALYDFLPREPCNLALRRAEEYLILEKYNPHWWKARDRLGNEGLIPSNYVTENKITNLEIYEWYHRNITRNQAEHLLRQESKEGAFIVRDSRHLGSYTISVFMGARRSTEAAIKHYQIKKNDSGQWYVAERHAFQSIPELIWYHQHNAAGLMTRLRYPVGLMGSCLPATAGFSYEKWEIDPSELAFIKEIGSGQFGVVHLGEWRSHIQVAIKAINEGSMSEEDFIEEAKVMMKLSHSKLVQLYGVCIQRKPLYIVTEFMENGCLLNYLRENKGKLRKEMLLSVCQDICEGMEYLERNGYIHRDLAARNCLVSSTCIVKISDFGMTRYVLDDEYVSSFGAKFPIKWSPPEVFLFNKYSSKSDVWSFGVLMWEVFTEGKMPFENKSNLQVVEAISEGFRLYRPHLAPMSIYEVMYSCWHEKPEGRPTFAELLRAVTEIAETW

[2] = biological target: RAC-alpha serine/threonine-protein kinase (Homo sapiens) (UniProt P31749); assay: Inhibition of AKT1 (unknown origin) at 0.45 uM relative to control
[3] = biological target: Aurora kinase A (Homo sapiens) (UniProt O14965); assay: Inhibition of AurA (unknown origin) at 0.164 uM relative to control
[4] = biological target: Ephrin type-B receptor 3 (Homo sapiens) (UniProt P54753); assay: Inhibition of EPHB3 (unknown origin) at 0.164 uM relative to control
[5] = biological target: Tyrosine-protein kinase SYK (Homo sapiens) (UniProt P43405); assay: Inhibition of SYK (unknown origin) at 0.164 uM relative to control
[6] = biological target: MAP/microtubule affinity-regulating kinase 3 (Homo sapiens) (UniProt P27448); assay: Inhibition of c-TAK1 (unknown origin) at 0.164 uM relative to control
[7] = biological target: Receptor tyrosine-protein kinase erbB-4 (Homo sapiens) (UniProt Q15303); assay: Inhibition of HER4 (unknown origin) at 0.164 uM relative to control
[8] = biological target: Dual specificity tyrosine-phosphorylation-regulated kinase 2 (Homo sapiens) (UniProt Q92630); assay: Inhibition of DYRK2 (unknown origin) at 0.164 uM relative to control
[9] = biological target: Hepatocyte growth factor receptor (Homo sapiens) (UniProt P08581); assay: Inhibition of MET (unknown origin) at 0.19 uM relative to control
[10] = biological target: Cyclin-dependent kinase 1/cyclin B1 (Homo sapiens) (UniProt P06493+P14635); assay: Inhibition of CDK1/CyclinB (unknown origin) at 0.19 uM relative to control; assay type: protein-complex assay
[11] = biological target: Homeodomain-interacting protein kinase 3 (Homo sapiens) (UniProt Q9H422); assay: Inhibition of HIPK3 (unknown origin) at 0.19 uM relative to control
[12] = biological target: Ephrin type-A receptor 5 (Homo sapiens) (UniProt P54756); assay: Inhibition of EPHA5 (unknown origin) at 0.19 uM relative to control
[13] = biological target: AMP-activated protein kinase, AMPK (Homo sapiens) (UniProt P54646+O43741+P54619+Q9UGJ0+Q9Y478+Q13131+Q9UGI9); assay: Inhibition of AMPK (unknown origin) at 0.19 uM relative to control; assay type: protein-complex assay
[14] = system: Platelet-derived growth factor receptor alpha (Homo sapiens), P16234 [D842V]; assay: Inhibition of PDGFRA D842V mutant (unknown origin) at 0.19 uM relative to control
[15] = biological target: Tyrosine-protein kinase Mer (Homo sapiens) (UniProt Q12866); assay: Inhibition of Mer (unknown origin) at 0.19 uM relative to control
[16] = biological target: Phosphorylase b kinase gamma catalytic chain, liver/testis isoform (Homo sapiens) (UniProt P15735); assay: Inhibition of PhKg2 (unknown origin) at 0.19 uM relative to control
[17] = biological target: Homeodomain-interacting protein kinase 2 (Homo sapiens) (UniProt Q9H2X6); assay: Inhibition of HIPK2 (unknown origin) at 0.19 uM relative to control
[18] = biological target: Proto-oncogene tyrosine-protein kinase receptor Ret (Homo sapiens) (UniProt P07949); assay: Inhibition of RET (unknown origin) at 0.19 uM relative to control
[19] = biological target: Ephrin type-A receptor 3 (Homo sapiens) (UniProt P29320); assay: Inhibition of EPHA3 (unknown origin) at 0.19 uM relative to control
[20] = biological target: Mitogen-activated protein kinase kinase kinase kinase 5 (Homo sapiens) (UniProt Q9Y4K4); assay: Inhibition of KHS1 (unknown origin) at 0.19 uM relative to control

Chain of Ephrin type-A receptor 3 (Homo sapiens) (P29320 whole entry): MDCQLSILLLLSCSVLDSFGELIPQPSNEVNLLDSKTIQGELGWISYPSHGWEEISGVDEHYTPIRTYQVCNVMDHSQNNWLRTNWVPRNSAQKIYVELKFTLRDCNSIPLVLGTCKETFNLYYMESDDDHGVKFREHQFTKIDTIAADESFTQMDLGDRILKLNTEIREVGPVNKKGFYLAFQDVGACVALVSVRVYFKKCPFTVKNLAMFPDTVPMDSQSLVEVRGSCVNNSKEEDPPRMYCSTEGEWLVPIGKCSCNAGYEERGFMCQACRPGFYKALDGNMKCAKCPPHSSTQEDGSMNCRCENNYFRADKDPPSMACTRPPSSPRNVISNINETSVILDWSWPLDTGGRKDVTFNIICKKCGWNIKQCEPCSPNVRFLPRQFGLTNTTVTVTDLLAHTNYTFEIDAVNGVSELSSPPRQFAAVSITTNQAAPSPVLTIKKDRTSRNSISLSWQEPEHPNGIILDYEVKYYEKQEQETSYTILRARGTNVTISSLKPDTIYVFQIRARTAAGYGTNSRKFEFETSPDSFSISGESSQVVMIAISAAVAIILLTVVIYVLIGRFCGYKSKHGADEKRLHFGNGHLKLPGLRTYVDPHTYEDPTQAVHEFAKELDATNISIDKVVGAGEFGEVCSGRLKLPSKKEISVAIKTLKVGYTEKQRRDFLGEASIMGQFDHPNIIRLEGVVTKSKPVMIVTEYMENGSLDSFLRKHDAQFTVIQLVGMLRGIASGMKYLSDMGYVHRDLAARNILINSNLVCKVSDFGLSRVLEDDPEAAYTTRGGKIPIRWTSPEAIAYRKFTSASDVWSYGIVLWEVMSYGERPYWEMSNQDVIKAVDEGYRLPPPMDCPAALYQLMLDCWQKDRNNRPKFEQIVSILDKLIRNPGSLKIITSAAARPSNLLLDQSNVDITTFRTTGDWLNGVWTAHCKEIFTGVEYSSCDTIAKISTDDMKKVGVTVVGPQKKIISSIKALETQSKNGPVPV
Chain of Hepatocyte growth factor receptor (Homo sapiens) (P08581 whole entry): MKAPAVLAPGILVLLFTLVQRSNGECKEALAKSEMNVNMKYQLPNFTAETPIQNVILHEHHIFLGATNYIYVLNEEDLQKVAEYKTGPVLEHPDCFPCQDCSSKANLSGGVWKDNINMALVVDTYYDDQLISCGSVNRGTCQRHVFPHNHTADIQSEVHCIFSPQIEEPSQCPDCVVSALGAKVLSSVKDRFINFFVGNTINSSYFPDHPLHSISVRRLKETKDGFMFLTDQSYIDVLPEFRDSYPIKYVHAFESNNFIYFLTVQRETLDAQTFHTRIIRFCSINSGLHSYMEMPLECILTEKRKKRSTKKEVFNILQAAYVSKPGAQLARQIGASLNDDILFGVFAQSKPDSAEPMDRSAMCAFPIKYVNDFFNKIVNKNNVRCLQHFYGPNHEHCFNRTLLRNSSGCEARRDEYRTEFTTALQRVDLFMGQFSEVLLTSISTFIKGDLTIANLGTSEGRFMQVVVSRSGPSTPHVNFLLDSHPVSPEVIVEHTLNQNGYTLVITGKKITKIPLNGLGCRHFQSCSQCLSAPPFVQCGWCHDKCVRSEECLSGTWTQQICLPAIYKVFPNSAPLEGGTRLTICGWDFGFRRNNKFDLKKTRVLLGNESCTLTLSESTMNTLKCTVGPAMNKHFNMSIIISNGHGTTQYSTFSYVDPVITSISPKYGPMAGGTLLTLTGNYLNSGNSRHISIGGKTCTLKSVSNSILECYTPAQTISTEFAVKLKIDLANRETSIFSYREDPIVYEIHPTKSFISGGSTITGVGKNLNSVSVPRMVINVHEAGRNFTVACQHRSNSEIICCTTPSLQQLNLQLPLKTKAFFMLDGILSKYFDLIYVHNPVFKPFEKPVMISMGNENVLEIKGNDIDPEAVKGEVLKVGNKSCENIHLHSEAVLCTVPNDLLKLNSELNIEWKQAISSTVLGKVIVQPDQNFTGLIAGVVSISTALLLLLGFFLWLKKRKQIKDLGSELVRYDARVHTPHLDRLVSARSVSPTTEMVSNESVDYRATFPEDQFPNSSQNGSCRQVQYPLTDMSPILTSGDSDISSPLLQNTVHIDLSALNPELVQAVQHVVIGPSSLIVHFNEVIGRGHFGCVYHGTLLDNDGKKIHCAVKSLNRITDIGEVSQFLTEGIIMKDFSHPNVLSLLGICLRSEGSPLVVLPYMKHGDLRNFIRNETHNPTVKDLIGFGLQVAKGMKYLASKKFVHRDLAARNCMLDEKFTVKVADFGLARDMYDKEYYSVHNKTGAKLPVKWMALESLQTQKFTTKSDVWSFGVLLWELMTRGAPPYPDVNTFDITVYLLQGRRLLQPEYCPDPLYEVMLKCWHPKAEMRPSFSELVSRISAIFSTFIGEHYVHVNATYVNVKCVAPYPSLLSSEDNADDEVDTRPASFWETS
Chain of Homeodomain-interacting protein kinase 3 (Homo sapiens) (Q9H422 whole entry, looked up): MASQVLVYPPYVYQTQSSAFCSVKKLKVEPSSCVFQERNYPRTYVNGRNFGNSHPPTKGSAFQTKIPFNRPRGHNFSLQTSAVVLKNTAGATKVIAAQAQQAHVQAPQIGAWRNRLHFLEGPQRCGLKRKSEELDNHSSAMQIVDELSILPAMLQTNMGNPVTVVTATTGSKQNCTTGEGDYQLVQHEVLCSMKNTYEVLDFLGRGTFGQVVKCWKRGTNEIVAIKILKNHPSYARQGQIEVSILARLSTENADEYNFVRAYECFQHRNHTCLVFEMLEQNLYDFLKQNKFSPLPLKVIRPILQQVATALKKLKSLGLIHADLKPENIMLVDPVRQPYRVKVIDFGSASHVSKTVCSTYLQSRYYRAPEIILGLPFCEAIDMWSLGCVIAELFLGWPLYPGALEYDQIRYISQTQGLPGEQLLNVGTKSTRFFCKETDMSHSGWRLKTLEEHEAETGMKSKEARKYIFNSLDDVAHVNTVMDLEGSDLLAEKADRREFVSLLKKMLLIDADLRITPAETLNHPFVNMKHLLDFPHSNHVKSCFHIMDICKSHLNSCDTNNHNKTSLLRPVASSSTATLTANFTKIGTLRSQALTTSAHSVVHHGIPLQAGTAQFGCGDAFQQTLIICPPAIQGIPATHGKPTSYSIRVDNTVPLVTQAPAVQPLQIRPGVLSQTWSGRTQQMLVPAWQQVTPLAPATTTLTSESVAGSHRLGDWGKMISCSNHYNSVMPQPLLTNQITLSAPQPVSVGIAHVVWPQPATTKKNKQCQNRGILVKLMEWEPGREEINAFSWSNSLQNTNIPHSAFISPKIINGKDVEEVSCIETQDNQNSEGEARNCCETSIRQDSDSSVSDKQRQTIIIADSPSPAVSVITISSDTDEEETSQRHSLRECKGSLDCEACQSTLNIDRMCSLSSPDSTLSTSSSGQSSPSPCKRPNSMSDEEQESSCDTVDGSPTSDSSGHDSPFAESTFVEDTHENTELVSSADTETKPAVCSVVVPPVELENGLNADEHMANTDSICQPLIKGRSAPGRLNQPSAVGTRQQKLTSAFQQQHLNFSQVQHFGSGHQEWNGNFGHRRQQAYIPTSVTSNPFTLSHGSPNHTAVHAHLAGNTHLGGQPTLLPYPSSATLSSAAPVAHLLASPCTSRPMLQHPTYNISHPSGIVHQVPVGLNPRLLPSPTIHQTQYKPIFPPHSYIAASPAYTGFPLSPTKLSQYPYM
Chain of Aurora kinase A (Homo sapiens) (O14965 whole entry): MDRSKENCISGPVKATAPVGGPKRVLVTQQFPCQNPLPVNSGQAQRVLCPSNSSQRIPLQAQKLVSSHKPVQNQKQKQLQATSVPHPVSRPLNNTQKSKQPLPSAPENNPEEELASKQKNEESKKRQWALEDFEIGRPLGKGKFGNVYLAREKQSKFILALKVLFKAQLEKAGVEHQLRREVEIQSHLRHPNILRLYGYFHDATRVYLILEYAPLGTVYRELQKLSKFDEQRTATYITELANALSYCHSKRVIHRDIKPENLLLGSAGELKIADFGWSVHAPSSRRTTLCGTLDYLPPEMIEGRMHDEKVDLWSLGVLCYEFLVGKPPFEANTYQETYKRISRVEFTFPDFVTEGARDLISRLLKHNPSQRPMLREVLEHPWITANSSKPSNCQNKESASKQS
Chain of Dual specificity tyrosine-phosphorylation-regulated kinase 2 (Homo sapiens) (Q92630 whole entry): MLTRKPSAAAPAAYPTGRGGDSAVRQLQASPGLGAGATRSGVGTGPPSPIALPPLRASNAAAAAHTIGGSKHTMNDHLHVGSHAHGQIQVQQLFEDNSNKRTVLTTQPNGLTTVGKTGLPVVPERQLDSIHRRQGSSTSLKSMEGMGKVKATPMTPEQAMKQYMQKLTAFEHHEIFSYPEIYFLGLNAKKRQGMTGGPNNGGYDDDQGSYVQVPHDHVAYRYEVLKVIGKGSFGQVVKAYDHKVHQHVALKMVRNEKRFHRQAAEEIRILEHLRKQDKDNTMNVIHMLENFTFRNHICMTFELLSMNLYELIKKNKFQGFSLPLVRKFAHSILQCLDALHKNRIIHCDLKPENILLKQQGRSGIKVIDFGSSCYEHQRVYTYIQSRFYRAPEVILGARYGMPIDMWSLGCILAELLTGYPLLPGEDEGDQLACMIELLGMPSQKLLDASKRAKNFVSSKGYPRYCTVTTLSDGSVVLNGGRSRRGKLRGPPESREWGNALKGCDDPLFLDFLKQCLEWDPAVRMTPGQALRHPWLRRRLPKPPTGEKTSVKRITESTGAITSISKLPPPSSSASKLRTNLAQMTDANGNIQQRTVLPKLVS
Chain of Phosphorylase b kinase gamma catalytic chain, liver/testis isoform (Homo sapiens) (P15735 whole entry, canonical isoform): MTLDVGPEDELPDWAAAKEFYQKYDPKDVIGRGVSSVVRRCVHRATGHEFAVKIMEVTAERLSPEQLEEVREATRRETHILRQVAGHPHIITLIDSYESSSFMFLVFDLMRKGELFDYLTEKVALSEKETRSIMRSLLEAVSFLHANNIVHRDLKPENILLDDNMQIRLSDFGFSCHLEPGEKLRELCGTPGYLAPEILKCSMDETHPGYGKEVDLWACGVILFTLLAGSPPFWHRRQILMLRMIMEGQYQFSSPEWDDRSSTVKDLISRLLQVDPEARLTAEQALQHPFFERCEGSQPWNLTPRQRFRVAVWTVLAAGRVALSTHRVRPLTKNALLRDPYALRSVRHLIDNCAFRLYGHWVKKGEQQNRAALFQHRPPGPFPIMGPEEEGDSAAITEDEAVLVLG

inhibition [1]: -0.7% | inhibition [2]: -1.7%
SMILES: Cc1n[nH]c(C)c1-c1ccc2c(NC(=O)c3ccc(N4CCN(C)CC4)cc3)n[nH]c2c1

inhibition [3]: 6.7% | inhibition [4]: 0.7% | inhibition [5]: 8% | inhibition [6]: 2% | inhibition [7]: -7.7% | inhibition [8]: 4.7%
SMILES: COC(=O)Nc1cc(-c2c(C3CC3)n[nH]c2C)cc2[nH]ncc12

inhibition [9]: 7.3% | inhibition [10]: -2% | inhibition [11]: 1% | inhibition [12]: 3% | inhibition [13]: 38.7% | inhibition [14]: 99.7% | inhibition [15]: -4% | inhibition [16]: -4% | inhibition [17]: 2.7% | inhibition [18]: 47.3% | inhibition [19]: 1.3% | inhibition [20]: 80.3%
SMILES: Cc1[nH]nc(C2CC2)c1-c1ccc2c(-c3ccc(N4CCN(C)CC4)nc3)n[nH]c2c1
